Results reported in patent US20220274947A1, “NOVEL HETEROARYL-TRIAZOLE COMPOUNDS AS PESTICIDES” (Bayer Aktiengesellschaft, priority 2019, published 2022).

How the values were obtained:
Type in all cases: in vivo
[1] = system: Rhipicephalus microplus; assay: Rhipicephalus (Boophilus) microplus injection test (BOOPMI Inj); details: 168 h, injection into adult engorged female ticks, egg deposition after 7 days, read-out: activity (efficacy: 100% means all eggs are infertile); for pest or weed control at 0.004 mg: application rate 4 μg/tick; for pest or weed control at 0.02 mg: application rate 20 μg/tick
How it was run: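 Five engorged adult female R. microplus ticks injected into the abdomen with 1 μL of compound diluted in DMSO, then kept in a climate chamber. Fertile egg deposition checked after 7 days; eggs without visible fertility held until hatching at about 42 days. Efficacy: 100% = all eggs infertile, 0% = all fertile.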

[2] = system: Rhipicephalus microplus; assay: Rhipicephalus (Boophilus) microplus in-vitro contact test, larval cattle tick, strain Parkhurst (BOOPMI Cont); details: application rate 5 μg/cm^2 (=500 g/ha), tick larvae, after 48 hours, read-out: activity (efficacy: 100% means all larvae are dead or moribund)
How it was run: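 Acetone solutions dried onto glass tube walls (900 ppm giving 5 μg/cm^2); 20-50 pyrethroid-resistant Parkhurst larvae added per tube and held 48 h at 27° C., 85% relative humidity. Efficacy scored by negative geotaxis as % dead or moribund larvae.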

[3] = system: Rhipicephalus sanguineus; assay: Rhipicephalus sanguineus in-vitro contact test, adult brown dog ticks (RHIPSA Cont); details: 48 h, after 48 hours, read-out: activity (efficacy: 100% means all ticks are dead or moribund); for pest or weed control at 1 µg/cm2, 100 g/ha: application rate 1 μg/cm^2 (=100 g/ha); for pest or weed control at 5 µg/cm2, 500 g/ha: application rate 5 μg/cm^2 (=500 g/ha)
How it was run: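 Compound in acetone was coated onto the inner walls of glass tubes and dried by rotation before adult brown dog ticks were exposed. Efficacy was scored at 48 h. Ticks unable to climb away from a 45–50 °C heating plate within 5 min counted as dead or moribund.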

[4] = system: Diabrotica balteata; assay: Diabrotica balteata spray test; details: 168 h, wheat seeds, larvae, after 7 days, read-out: activity (efficacy: 100% means all seedlings have grown up like in the untreated, uninfected control); for pest or weed control at 32 µg/disc, 100 g/ha: application rate 100 g/ha (=32 μg/well)
How it was run: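 Wheat seedlings, germinated 1 day on agar, were sprayed with compound in acetone/DMF diluted in water containing emulsifier, then infested with 10-20 Diabrotica balteata larvae. After 7 days efficacy in % was scored: 100% means seedlings grew like the untreated, uninfected control; 0% means none grew.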

[5] = system: Myzus persicae; assay: Myzus persicae spray test; details: in Brassica rapa, foliar, 120 h; for mortality at 100 g/ha: read-out: activity (mortality), application rate 100 g/ha, spray, Chinese cabbage leaf disks, after 5 days
Procedure: Myzus persicae—Spray Test Solvent: 78.0 parts by weight acetone • 1.5 parts by weight dimethylformamide Emulsifier: alkylarylpolyglycol ether To produce a suitable preparation of active compound, 1 part by weight of active compound is mixed with the stated amount of solvents and is diluted with water, containing an emulsifier concentration of 1000 ppm, to the desired concentration. Further test concentrations are prepared by dilution with emulsifier containing water.
Chinese cabbage (Brassica pekinensis) leaf disks infected with all instars of the green peach aphid (Myzus persicae), are sprayed with a preparation of the active ingredient of the desired concentration.
After 5 days mortality in % is determined. 100% means all aphids have been killed and 0% means none of the aphids have been killed.

[6] = system: Nezara viridula; assay: Nezara viridula spray test; details: in Hordeum vulgare, 96 h, barley plants, larvae, after 4 days; for mortality at 100 g/ha: application rate 100 g/ha; for mortality at 500 g/ha: application rate 500 g/ha
Procedure: Nezara viridula—Spray Test Solvent: 78.0 parts by weight of acetone • • 1.5 parts by weight of dimethylformamide Emulsifier: alkylarylpolyglycol ether
To produce a suitable preparation of active compound, 1 part by weight of active compound is mixed with the stated amount of solvent, and the concentrate is diluted with water, containing an emulsifier concentration of 1000 ppm, to the desired concentration. Further test concentrations are prepared by dilution with emulsifier containing water.
Barley plants (Hordeum vulgare) infested with larvae of the southern green stink bug (Nezara viridula) are sprayed with a test solution containing the desired concentration of the active ingredient.
After 4 days mortality in % is determined. 100% means all the stink bugs have been killed; 0% means none of the stink bugs have been killed.

[7] = system: Spodoptera frugiperda; assay: Spodoptera frugiperda spray test; details: in Zea mays, 168 h, read-out: activity (mortality)
How it was run: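 Maize leaf sections were sprayed with compound formulated in acetone/DMF and diluted in water containing 1000 ppm emulsifier. Dried leaves were infested with fall armyworm larvae, and percent mortality was scored after 7 days.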

[8] = system: Aedes aegypti strain MONHEIM; assay: Aedes aegypti test (AEDSAE surface treatment & contact assay); details: surface concentration 20 mg/m^2, glazed tile, exposure 30 minutes, 24 hours after contact, read-out: efficacy (mortality)
How it was run: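 Compound dissolved in acetone (2 mg/ml) with 2000 ppm rapeseed oil methyl ester, pipetted onto glazed tile and dried. Adult mosquitoes exposed on the surface for 30 min; percent mortality scored 24 h after contact.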

[9] = system: Musca domestica strain WHO—N; assay: Musca domestica test (MUSCDO surface treatment & contact assay); details: exposure 30 minutes, 24 hours after contact, read-out: efficacy (mortality); for mortality at 4 mg/m2: surface concentration 4 mg/m^2, glazed tile; for mortality at 20 mg/m2: surface concentration 20 mg/m^2, glazed tile
How it was run: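 Compound dissolved in acetone (2 mg/ml) with 2000 ppm rapeseed oil methyl ester and pipetted onto glazed tile; after acetone evaporation, adult flies exposed to dried surface for 30 minutes. Mortality (%) scored 24 hours after contact.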

[10] = system: Ctenocephalides felis; assay: Ctenocephalides felis in-vitro contact test, adult cat flea (CTECFE Cont); details: application rate 5 μg/cm^2 (=500 g/ha), adult cat fleas, after 48 hours, read-out: activity (efficacy: 100% means all fleas are dead or moribund)
How it was run: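 Acetone solutions coated on glass tube inner walls (900 ppm giving 5 μg/cm^2), then 5-10 adult fleas added and held 48 h at room temperature. Fleas unable to escape a 45-50° C. heating plate within 5 min scored dead or moribund; efficacy = % dead/moribund.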

[11] = system: Myzus persicae; assay: Myzus persicae oral test; details: 120 h, read-out: activity (mortality)
How it was run: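 Percent mortality was recorded at day 5, where 0% means no aphids killed. Compound prepared from an acetone concentrate diluted in water and combined with IPL41 medium containing sugar was offered to mixed-stage green peach aphids, which sucked it through a parafilm seal.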

[12] = system: Ctenocephalides felis; assay: Ctenocephalides felis oral test (CTECFE Oral); details: 48 h, read-out: activity (mortality)
How it was run: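 About 20 unfed adult cat fleas fed through parafilm on cattle blood containing compound (DMSO concentrate diluted in blood to the desired concentration). Blood held at 37 °C, fleas at room temperature. Mortality (%) scored after 2 days.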

Row | Compound | pest or weed control at 0.004 mg [1] [%] | pest or weed control at 0.02 mg [1] [%] | pest or weed control at 5 µg/cm2 [2] [%] | pest or weed control at 1 µg/cm2, 100 g/ha [3] [%] | pest or weed control at 5 µg/cm2, 500 g/ha [3] [%] | pest or weed control at 32 µg/disc, 100 g/ha [4] [%] | mortality at 100 g/ha [5] [%] | mortality at 100 g/ha [6] [%] | mortality at 100 g/ha [7] [%] | mortality at 20 mg/m2 [8] [%] | mortality at 4 mg/m2 [9] [%] | mortality at 20 mg/m2 [9] [%] | pest or weed control at 5 µg/cm2 [10] [%] | mortality at 0.8 ppm [11] [%] | mortality at 4 ppm [11] [%] | mortality at 500 g/ha [6] [%] | pest or weed control at 160 µg/disc, 500 g/ha ([4]; application rate 500 g/ha (=160 μg/well)) [%] | mortality at 500 g/ha ([5]; read-out: activity (mortality), application rate 500 g/ha, spray, Chinese cabbage leaf disks, after 5 days) [%] | mortality at 500 g/ha [7] [%] | mortality at 100 ppm [12] [%]
1 | C[C@H](NC(=O)c1cc(C(F)(F)F)cc(C(F)(F)F)c1)c1nc(C(C)(C)C)nn1-c1ccc(C#N)cn1 [I-37] | 100 | 100 | 100 | 100 | 100 | 100 | 90 | 100 | 100 | 80 to 100 | 80 to 100 | 80 to 100 |  |  |  |  |  |  |  | 
2 | COc1nc([C@H](C)NC(=O)c2cc(OC(F)F)cc(OC(F)F)c2)n(-c2ccc(C#N)cn2)n1 [I-64] |  |  | 100 |  | 80 | 100 | 90 | 90 | 100 |  |  |  | 90 | 100 | 100 | 100 |  |  |  | 
3 | COc1nc([C@H](C)NC(=O)c2cc(OC(F)F)cc(C(F)F)c2)n(-c2ccc(C#N)cn2)n1 [I-65] |  |  | 100 |  | 80 | 100 | 90 |  | 100 |  |  |  |  |  | 100 | 100 |  |  |  | 
4 | C[C@H](NC(=O)c1cc(C(F)(F)F)cc(C(F)(F)F)c1)c1ncnn1-c1ncc(I)s1 [II-39] | 100 | 100 | 100 | 100 | 100 | 100 |  |  | 100 | 80 to 100 | 80 to 100 | 80 to 100 |  |  |  | 90 | 100 | 100 | 100 | 
5 | Cc1nc([C@H](C)NC(=O)c2cc(C(F)(F)F)cc(C(F)(F)F)c2)n(-c2ccc(C(=O)N(C)C(C)C)cn2)n1 [II-92] | 100 |  | 100 | 100 | 100 |  | 90 | 90 | 100 |  |  |  | 100 |  | 100 |  |  |  |  | 
6 | Cc1nc([C@H](C)NC(=O)c2cc(C(F)(F)F)cc(C(F)(F)F)c2)n(-c2ccc(C(=O)N(C)C)cn2)n1 [II-100] | 100 |  | 100 | 100 | 100 |  | 100 | 100 | 100 |  |  |  | 100 | 100 | 100 |  |  |  |  | 
7 | Cc1nc([C@H](C)NC(=O)c2cc(Br)cc(OC(F)(F)F)c2)n(-c2cc(C#N)ccn2)n1 [II-106] | 100 |  | 100 | 100 | 100 | 100 | 90 |  | 100 |  |  |  | 90 |  | 100 |  |  |  |  | 100
8 | CCSc1cc(C#N)cc(C(=O)N[C@@H](C)c2ncnn2-c2ccc(C#N)cn2)c1 [II-109] | 100 |  | 100 | 100 | 100 | 100 | 90 | 100 |  |  |  |  | 100 | 90 | 100 |  |  |  |  | 
9 | Cc1nc([C@H](C)NC(=O)c2cc(C(F)F)cc(C(F)F)c2)n(-c2ccc(C#N)cn2)n1 [II-114] |  |  | 100 | 100 | 100 | 100 | 90 | 100 | 83 |  |  |  | 100 | 100 | 100 |  |  |  |  | 
